Reference: patent US20080051400A1, “Methods for treating or preventing anemia or thrombocytopenia using a triheterocyclic compound” (Gemin X Biotechnologies Inc., priority 2006, published 2008)

Legend:
[1] = tested on: patients having myelodysplastic syndromes (MDS); experiment: Multi-center, open label, dose escalation study in patients having myelodysplastic syndromes (MDS); assay type: in vivo, human
Description: In a multi-center, open label, dose escalation study, a group of eight patients having myelodysplastic syndromes (MDS) received intravenous doses of 7-40 mg/m^2 of the mesylate salt of Compound 1 administered as a 24-hour infusion every two weeks. These infusions were administered over a period of several weeks to several months, the first cycle of infusion was administered in a clinical unit but the subsequent four cycles were administered in the ambulatory setting using portable infusion pumps.

[2] = tested on: patients having chronic lymphocytic leukemia (CLL); experiment: Multi-center, double-blind, dose-ranging study in patients having chronic lymphocytic leukemia (CLL); assay type: in vivo, human
Description: In a multi-center, double-blind, dose-ranging study, two groups of patients having chronic lymphocytic leukemia (CLL) received intravenous doses of either 3.5-14 mg/m^2 of the mesylate salt of Compound 1 administered as a 1-hour infusion, or a 20-40 mg/m2 dose via a 3-hour infusion. These infusions were administered over a period of several weeks to several months.

SMILES: COC1=CC(c2cc3ccccc3[nH]2)=N/C1=C\c1[nH]c(C)cc1C [Compound 1]
- patients who showed hematological improvement in hemoglobin levels ([1]; MDS patients, mesylate salt i.v. 7-40 mg/m^2 as 24-hour infusion every two weeks, FIG. 2A): Three out of eight patients
- patients who showed platelet count elevation ([1]; MDS patients, mesylate salt i.v. 7-40 mg/m^2 as 24-hour infusion every two weeks, FIG. 2B, patient 3 was not thrombocytopenic at start): these three patients showed platelet count elevation
- patients becoming transfusion independent (hemoglobin responders) ([1]; among the three MDS patients with hemoglobin improvement, FIG. 2A): two of the patients
- patients becoming transfusion independent (platelet responders) ([1]; among the three MDS patients with platelet count elevation, FIG. 2B): one of the patients
- anemic patients who showed significant hemoglobin elevation ([2]; CLL patients with initial hemoglobin counts of less than 11 g/dL, mesylate salt i.v. 3.5-40 mg/m^2): three out of eleven anemic patients
- patients having thrombocytopenia who showed significant increases in platelet count ([2]; CLL patients with initial platelet counts less than 150×10^9/L, mesylate salt i.v. 3.5-14 mg/m^2 as 1-hour infusion or 20-40 mg/m2 as 3-hour infusion, over several weeks to several months): Four patients out of fourteen patients
- patients becoming transfusion independent (hemoglobin responders) ([2]; among the three anemic CLL patients with hemoglobin elevation, FIG. 1): two of the patients
- increase in platelet count in responding patients ([2]; four responding thrombocytopenic CLL patients, mesylate salt i.v. 3.5-40 mg/m^2): over 50%
